The record followed here is ChEMBL document CHEMBL1136608, “Azaindoles: moderately basic P1 groups for enhancing the selectivity of thrombin inhibitors” (Bioorg Med Chem Lett, 2003).

One data set addresses Prothrombin (Homo sapiens, UniProt P00734). The data set can be described thus: Inhibition of Thrombin.
In the next data set the target is Serine protease 1 (Homo sapiens, UniProt P07477). The data set can be described thus: Inhibition of Trypsin.
The next data set is filed under the species Homo sapiens. The data set can be described thus: In vitro concentration required to double the human activated partial thromboplastin time (2x APTT). In kind it is functional.
Data set [1] is described as follows: Area under curve was determined in dog after oral administration at 1 mg/kg. In kind it is ADME, organism-based, Canis lupus familiaris. On the set-up: dose 1 mg/kg, route oral. The conditions noted are these: in vivo.
Data set [2] can be described thus: Cmax in dog after oral administration at 1 mg/kg. The note with it: in vivo. On the set-up: dose 1 mg/kg, route oral. It is filed as ADME, organism-based, Canis lupus familiaris.
Data set [3] in a line: Half-life in dog after oral administration at 1 mg/kg. In kind it is ADME, organism-based, Canis lupus familiaris. On the set-up: dose 1 mg/kg, route oral. The note with it: in vivo.
For a further data set, the system named is Canis familiaris. The data set can be described thus: Cmax in dog after oral administration at 1 mg/kg; Below the level of quantitation. On the set-up: dose 1 mg/kg, route oral. It is filed as ADME, organism-based, Canis lupus familiaris. The conditions noted are these: in vivo.

Chain of Serine protease 1 (P07477 whole entry): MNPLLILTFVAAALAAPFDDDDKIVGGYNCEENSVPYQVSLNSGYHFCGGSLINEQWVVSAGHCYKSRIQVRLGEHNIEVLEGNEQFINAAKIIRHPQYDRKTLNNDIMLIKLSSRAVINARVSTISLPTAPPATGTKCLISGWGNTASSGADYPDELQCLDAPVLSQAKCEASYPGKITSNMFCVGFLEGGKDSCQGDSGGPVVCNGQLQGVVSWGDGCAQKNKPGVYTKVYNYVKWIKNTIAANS

The term Ki denotes the dissociation constant of the complex between target and ligand, obtained from inhibition or displacement. Consider `Cc1cnc(NCCc2ccccc2)c(=O)n1CC(=O)NCc1ccn2ccnc2c1`, for which the Ki on Prothrombin was 0.27 µM; at Serine protease 1, 120 µM.

As to `Cc1cnc(NCCc2ccccn2)c(=O)n1CC(=O)NCc1c[nH]c2nccc-2c1`, the Concentration in the data set listed under Homo sapiens is 0.95 µM.

As for `Cc1cnc(NCCc2ccccc2)c(=O)n1CC(=O)NCc1ccc2nccn2c1`, the Ki on Prothrombin was 0.14 µM; on Serine protease 1, 100 µM.

In the case of `Cc1cnc(NCCc2ccccc2)c(=O)n1CC(=O)NCc1ccc2[nH]ccc2n1`, the Ki at Serine protease 1 was above 100 µM.

One may read the AUC as the area under the concentration-time curve, a measure of exposure. A low value points to low exposure. Broadly, the Cmax is the peak of the concentration-time curve. Usually half-life stands for the time needed for the level to fall by half in the phase considered. A lower half-life goes with fast loss. As for `Cc1nc(N)ccc1CNC(=O)Cn1c(C)cnc(NCCc2ccccc2)c1=O` [L-375378], the Concentration in the data set listed under Homo sapiens was 0.41 µM. In addition, in data set [1], the AUC is 23.1 µM·h. Further, the highest level in data set [2] (Cmax) was 5370 nM. The half-life in data set [3] was 3.18 h.

Consider `Cc1cnc(NCCc2ccccc2)c(=O)n1CC(=O)NCc1ccc2nccn2c1C`, for which, on Serine protease 1, the Ki was 6.8 µM.

At Serine protease 1, `Cc1cnc(NCCc2ccccc2)c(=O)n1CC(=O)NCc1ccc2[nH]ccc2c1` came in with a Ki above 100 µM.

Consider `Cc1cnc(NCCc2ccccn2)c(=O)n1CC(=O)NCc1cnc2[nH]ccc2c1`, for which the inhibitory constant (Ki) at Prothrombin stood at 0.0066 µM; on Serine protease 1 it was 140 µM. For the same molecule, in data set [1], the AUC stood at 9.1 µM·h. In data set [2], this molecule gave a Cmax of 2100 nM. In addition, the half-life in data set [3] is 2.42 h.

Consider `Cc1cnc(NCCc2ccccc2)c(=O)n1CC(=O)NCc1cnc2[nH]ccc2c1`, for which the Ki on Serine protease 1 is above 100 µM.

`Cc1cnc(NCCc2ccccc2)c(=O)n1CC(=O)NCc1ccc2cc[nH]c2c1`: the values for the Ki on Prothrombin and on Serine protease 1 were 0.83 µM and above 100 µM, respectively.

For the molecule `Cc1cnc(NCCc2ccccn2)c(=O)n1CC(=O)NCc1ccc2[nH]ccc2n1`, the highest concentration (Cmax) entry in the data set on Canis familiaris is listed as “Below the level of quantitation”. The Concentration in the data set filed under Homo sapiens was found to be 0.8 µM. This molecule had a Ki on Serine protease 1 above 1000 µM.

`Cc1cnc(NCCc2ccccc2)c(=O)n1CC(=O)NCc1ccc2[nH]cnc2c1` had a Ki on Serine protease 1 of 2 µM.

Consider `Cc1cnc(NCCc2ccccc2)c(=O)n1CC(=O)NCc1cc2cc[nH]c2cn1`, for which the Concentration in the data set filed under Homo sapiens is 2.63 µM. The molecule further returned an area under the curve (AUC) in data set [1] of 15.2 µM·h. The same molecule came in with a Cmax in data set [2] of 2690 nM. The same molecule came in with a Ki on Serine protease 1 of 95 µM. In addition, the half-life in data set [3] is 3.6 h.

Take `Cc1cnc(NCCc2ccccn2)c(=O)n1CC(=O)NCc1ccc2[nH]ccc2c1`: affinity at Serine protease 1 was put at a Ki of 290 µM.

In the case of `Cc1cnc(NCCc2ccccn2)c(=O)n1CC(=O)NCc1cc2cc[nH]c2cn1`, the Concentration in the data set filed under Homo sapiens was 0.4 µM. Also, in data set [1], the AUC turned out to be 0.17 µM·h. Also, in data set [2], the peak level (Cmax) was 180 nM. At Serine protease 1, this molecule registered a Ki of 200 µM.
